In brackets after ≈: the same amount, converted by molar mass.
Experiments:
Assay type in all cases: functional
Acinetobacter pittii [1] = assay: Antibacterial activity against Acinetobacter genomosp. 3 isolates assessed as percent of resistance isolates by broth micro dilution
Acinetobacter pittii [2] = assay: Antibacterial activity against Acinetobacter genomosp. 3 isolates by broth micro dilution
Acinetobacter pittii [3] = assay: Antibacterial activity against Pulsotype I Acinetobacter genomosp. 3 isolate 11 containing IMP-1, OXA-58, ADC-18, ISAba1, ISAba3, IS1008, intI1 genetic elements by broth micro dilution
Acinetobacter pittii [4] = assay: Antibacterial activity against Pulsotype K Acinetobacter genomosp. 3 isolate 6 containing IMP-1, OXA-58, ADC-18, ISAba1, ISAba3, IS1008, intI1 genetic elements by broth micro dilution
Acinetobacter pittii [5] = assay: Antibacterial activity against Pulsotype D Acinetobacter genomosp. 3 isolate 18 containing IMP-1, OXA-58, ADC-18, ISAba1, ISAba3, repAcil, IS1008, intI1 genetic elements by broth micro dilution
Acinetobacter pittii [6] = assay: Antibacterial activity against Pulsotype B Acinetobacter genomosp. 3 isolate 8 containing IMP-1, OXA-58, ADC-18, ISAba1, ISAba3, IS1008, intI1 genetic elements by broth micro dilution
Acinetobacter pittii [7] = assay: Antibacterial activity against Pulsotype L Acinetobacter genomosp. 3 isolate 7 containing IMP-1, OXA-58, ADC-18, ISAba1, ISAba3, IS1008, intI1 genetic elements by broth micro dilution
Acinetobacter pittii [8] = assay: Antibacterial activity against Pulsotype J Acinetobacter genomosp. 3 isolate 15 containing IMP-1, OXA-58, ADC-18, ISAba1, ISAba3, IS1008, intI1 genetic elements by broth micro dilution
Acinetobacter pittii [9] = assay: Antibacterial activity against Pulsotype C Acinetobacter genomosp. 3 isolate 1 containing IMP-1, OXA-58, ADC-18, ISAba1, ISAba3, IS1008, intI1 genetic elements by broth micro dilution
Acinetobacter pittii [10] = assay: Antibacterial activity against Pulsotype L Acinetobacter genomosp. 3 isolate 2 containing IMP-8, OXA-58, ADC-43, ISAba1, ISAba3, IS1008, intI1 genetic elements by broth micro dilution
Acinetobacter pittii [11] = assay: Antibacterial activity against Pulsotype F Acinetobacter genomosp. 3 isolate 4 containing IMP-1, OXA-58, ADC-18, ISAba1, ISAba3, IS18, IS1008, intI1 genetic elements by broth micro dilution
Acinetobacter pittii [12] = assay: Antibacterial activity against Pulsotype I Acinetobacter genomosp. 3 isolate 10 containing IMP-1, OXA-58, ADC-18, ISAba1, ISAba3, IS1008, intI1 genetic elements by broth micro dilution
Acinetobacter pittii [13] = assay: Antibacterial activity against Pulsotype M Acinetobacter genomosp. 3 isolate 5 containing IMP-1, OXA-58, ADC-43, ISAba2, ISAba3, IS1008, intI1 genetic elements by broth micro dilution
Acinetobacter pittii [14] = assay: Antibacterial activity against Pulsotype I Acinetobacter genomosp. 3 isolate 11 containing IMP-1, OXA-58, ADC-18, ISAba1, ISAba3, IS1008, intI1 genetic elements by agar dilution method
Acinetobacter pittii [15] = assay: Antibacterial activity against Pulsotype M Acinetobacter genomosp. 3 isolate 5 containing IMP-1, OXA-58, ADC-43, ISAba2, ISAba3, IS1008, intI1 genetic elements by agar dilution method
Acinetobacter pittii [16] = assay: Antibacterial activity against Pulsotype L Acinetobacter genomosp. 3 isolate 7 containing IMP-1, OXA-58, ADC-18, ISAba1, ISAba3, IS1008, intI1 genetic elements by agar dilution method
Acinetobacter pittii [17] = assay: Antibacterial activity against Pulsotype J Acinetobacter genomosp. 3 isolate 15 containing IMP-1, OXA-58, ADC-18, ISAba1, ISAba3, IS1008, intI1 genetic elements by agar dilution method
Acinetobacter pittii [18] = assay: Antibacterial activity against Pulsotype L Acinetobacter genomosp. 3 isolate 2 containing IMP-8, OXA-58, ADC-43, ISAba1, ISAba3, IS1008, intI1 genetic elements by agar dilution method
Acinetobacter pittii [19] = assay: Antibacterial activity against Acinetobacter genomosp. 3 isolates assessed as percent of resistance isolates by agar dilution method
Acinetobacter pittii [20] = assay: Antibacterial activity against Pulsotype I Acinetobacter genomosp. 3 isolate 10 containing IMP-1, OXA-58, ADC-18, ISAba1, ISAba3, IS1008, intI1 genetic elements by agar dilution method
Acinetobacter pittii [21] = assay: Antibacterial activity against Pulsotype C Acinetobacter genomosp. 3 isolate 1 containing IMP-1, OXA-58, ADC-18, ISAba1, ISAba3, IS1008, intI1 genetic elements by agar dilution method
Acinetobacter pittii [22] = assay: Antibacterial activity against Pulsotype B Acinetobacter genomosp. 3 isolate 8 containing IMP-1, OXA-58, ADC-18, ISAba1, ISAba3, IS1008, intI1 genetic elements by agar dilution method
Acinetobacter pittii [23] = assay: Antibacterial activity against Pulsotype F Acinetobacter genomosp. 3 isolate 4 containing IMP-1, OXA-58, ADC-18, ISAba1, ISAba3, IS18, IS1008, intI1 genetic elements by agar dilution method
Acinetobacter pittii [24] = assay: Antibacterial activity against Acinetobacter genomosp. 3 isolates by agar dilution method
Acinetobacter pittii [25] = assay: Antibacterial activity against Pulsotype K Acinetobacter genomosp. 3 isolate 6 containing IMP-1, OXA-58, ADC-18, ISAba1, ISAba3, IS1008, intI1 genetic elements by agar dilution method
Acinetobacter pittii [26] = assay: Antibacterial activity against Pulsotype D Acinetobacter genomosp. 3 isolate 18 containing IMP-1, OXA-58, ADC-18, ISAba1, ISAba3, repAcil, IS1008, intI1 genetic elements by agar dilution method
Enterobacteriaceae [27] = assay: Antibacterial activity against Enterobacteriaceae assessed as resistant breakpoint by CLSI method
Enterobacteriaceae [28] = assay: Antibacterial activity against Enterobacteriaceae assessed as susceptibility breakpoint by CLSI method
Enterobacteriaceae [29] = assay: Antibacterial activity against Enterobacteriaceae assessed as intermediate breakpoint by CLSI method

| Compound | Activity (Acinetobacter pittii [1]) [%] | MIC50 (Acinetobacter pittii [2]) [µg/mL] | MIC90 (Acinetobacter pittii [2]) [µg/mL] | MIC (Acinetobacter pittii [3]) [µg/mL] | MIC (Acinetobacter pittii [4]) [µg/mL] | MIC (Acinetobacter pittii [5]) [µg/mL] | MIC (Acinetobacter pittii [6]) [µg/mL] | MIC (Acinetobacter pittii [7]) [µg/mL] | MIC (Acinetobacter pittii [8]) [µg/mL] | MIC (Acinetobacter pittii [9]) [µg/mL] | MIC (Acinetobacter pittii [10]) [µg/mL] | MIC (Acinetobacter pittii [11]) [µg/mL] | MIC (Acinetobacter pittii [12]) [µg/mL] | MIC (Acinetobacter pittii [13]) [µg/mL] | other results |
| --- | --- | --- | --- | --- | --- | --- | --- | --- | --- | --- | --- | --- | --- | --- | --- |
| NCC[C@H](O)C(=O)N[C@@H]1C[C@H](N)[C@@H](O[C@H]2O[C@H](CN)[C@@H](O)[C@H](O)[C@H]2O)[C@H](O)[C@H]1O[C@H]1O[C@H](CO)[C@@H](O)[C@H](N)[C@H]1O [AMIKACIN] | 52.6 | 32 (≈ 54.6 µM) | ≥ 64 |  |  |  |  |  |  |  |  |  |  |  |  |
| C[C@H]1[C@H](NC(=O)/C(=N\OC(C)(C)C(=O)O)c2csc(N)n2)C(=O)N1S(=O)(=O)O [AZTREONAM] | 94.7 | ≥ 32 | ≥ 32 | > 16 | > 16 | > 16 | > 16 | > 16 | > 16 | > 16 | > 16 | > 16 | > 16 | > 16 |  |
| CO/N=C(\C(=O)N[C@@H]1C(=O)N2C(C(=O)[O-])=C(C[N+]3(C)CCCC3)CS[C@H]12)c1csc(N)n1 [CEFEPIME] | 63.2 | ≥ 32 | ≥ 32 | > 16 | > 16 | > 16 | > 16 | > 16 | > 16 | > 16 | > 16 | > 16 | > 16 | > 16 |  |
| CC(C)(O/N=C(\C(=O)N[C@@H]1C(=O)N2C(C(=O)[O-])=C(C[n+]3ccccc3)CS[C@H]12)c1csc(N)n1)C(=O)O [CEFTAZIDIME] | 68.4 | ≥ 64 | ≥ 64 | > 32 | > 32 | > 32 | > 32 | > 32 | > 32 | > 32 | > 32 | > 32 | > 32 | > 32 |  |
| CO/N=C(\C(=O)N[C@@H]1C(=O)N2C(C(=O)O)=C(CSc3nc(=O)c(O)nn3C)CS[C@H]12)c1csc(N)n1 [CEFTRIAXONE] | 63.2 | ≥ 64 | ≥ 64 | > 32 | > 32 | > 32 | > 32 | > 32 | > 32 | > 32 | > 32 | > 32 | > 32 | > 32 |  |
| O=C(O)c1cn(C2CC2)c2cc(N3CCNCC3)c(F)cc2c1=O [CIPROFLOXACIN] | 5.3 | 0.25 (≈ 0.754 µM) | 2 (≈ 6.04 µM) |  |  |  |  |  |  |  |  |  |  |  |  |
| C[C@@H](O)[C@H]1C(=O)N2C(C(=O)O)=C(SCCNC=N)C[C@H]12 [IMIPENEM ANHYDROUS] | 57.9 | 16 (≈ 53.4 µM) | 32 (≈ 107 µM) | 32 (≈ 107 µM) | 16 (≈ 53.4 µM) | 32 (≈ 107 µM) | 32 (≈ 107 µM) | 32 (≈ 107 µM) | 16 (≈ 53.4 µM) | 32 (≈ 107 µM) | 32 (≈ 107 µM) | 64 (≈ 214 µM) | 32 (≈ 107 µM) | 16 (≈ 53.4 µM) |  |
| C[C@@H](O)[C@H]1C(=O)N2C(C(=O)O)=C(S[C@@H]3CN[C@H](C(=O)N(C)C)C3)[C@H](C)[C@H]12 [MEROPENEM] | 57.9 | 16 (≈ 41.7 µM) | 32 (≈ 83.4 µM) | 16 (≈ 41.7 µM) | 32 (≈ 83.4 µM) | 32 (≈ 83.4 µM) | 16 (≈ 41.7 µM) | 16 (≈ 41.7 µM) | 32 (≈ 83.4 µM) | 16 (≈ 41.7 µM) | 16 (≈ 41.7 µM) | 64 (≈ 167 µM) | 32 (≈ 83.4 µM) | 16 (≈ 41.7 µM) |  |
| CCN1CCN(C(=O)N[C@@H](C(=O)N[C@@H]2C(=O)N3[C@@H]2SC(C)(C)[C@@H]3C(=O)O)c2ccccc2)C(=O)C1=O [PIPERACILLIN] | 63.2 | ≥ 128 | ≥ 128 | > 64 | > 64 | 32 (≈ 61.8 µM) | > 64 | > 64 | > 64 | > 64 | > 64 | > 64 | > 64 | > 64 |  |
| CC1(C)[C@H](C(=O)O)N2C(=O)C[C@H]2S1(=O)=O [SULBACTAM] |  |  |  |  |  |  |  |  |  |  |  |  |  |  | MIC (Acinetobacter pittii [14]): 4 µg/mL (≈ 17.1 µM); MIC (Acinetobacter pittii [15]): 2 µg/mL (≈ 8.57 µM); MIC (Acinetobacter pittii [16]): 4 µg/mL (≈ 17.1 µM); MIC (Acinetobacter pittii [17]): 4 µg/mL (≈ 17.1 µM); MIC (Acinetobacter pittii [18]): 4 µg/mL (≈ 17.1 µM); Activity (Acinetobacter pittii [19]): 0%; MIC (Acinetobacter pittii [20]): 4 µg/mL (≈ 17.1 µM); MIC (Acinetobacter pittii [21]): 4 µg/mL (≈ 17.1 µM); MIC (Acinetobacter pittii [22]): 2 µg/mL (≈ 8.57 µM); MIC (Acinetobacter pittii [23]): 2 µg/mL (≈ 8.57 µM); MIC50 (Acinetobacter pittii [24]): 2 µg/mL (≈ 8.57 µM); MIC90 (Acinetobacter pittii [24]): 4 µg/mL (≈ 17.1 µM); MIC (Acinetobacter pittii [25]): 4 µg/mL (≈ 17.1 µM); MIC (Acinetobacter pittii [26]): 4 µg/mL (≈ 17.1 µM) |
| CN(C)c1cc(NC(=O)CNC(C)(C)C)c(O)c2c1C[C@H]1C[C@H]3[C@H](N(C)C)C(O)=C(C(N)=O)C(=O)[C@@]3(O)C(O)=C1C2=O [TIGECYCLINE] | 0 | 0.12 (≈ 0.205 µM) | 0.5 (≈ 0.854 µM) |  |  |  |  |  |  |  |  |  |  |  | Activity (Enterobacteriaceae [27]): >=8 ug ml-1; Activity (Enterobacteriaceae [28]): <=2 ug ml-1; Activity (Enterobacteriaceae [29]): 4 µg/mL |
| NC[C@H]1O[C@H](O[C@H]2[C@H](O)[C@@H](O[C@H]3O[C@H](CO)[C@@H](O)[C@H](N)[C@H]3O)[C@H](N)C[C@@H]2N)[C@H](N)C[C@@H]1O [TOBRAMYCIN] | 42.1 | 8 (≈ 17.1 µM) | ≥ 16 |  |  |  |  |  |  |  |  |  |  |  |  |
| COLISTIN | 0 | 1 | 2 |  |  |  |  |  |  |  |  |  |  |  |  |
| GENTAMICIN | 52.6 | 8 | > 16 |  |  |  |  |  |  |  |  |  |  |  |  |

Source: ChEMBL document CHEMBL1255492, “Molecular characterization of beta-lactamase genes and their genetic structures in Acinetobacter genospecies 3 isolates in Taiwan” (2010)
